# From patent US10240133B2, “ERK-derived peptides and uses thereof” (Yeda Research and Development Co. Ltd., priority 2013, dated 2019)
# Tests used:
# [1] = target: T1, interaction of Imp7 with ERK (Homo sapiens, UniProt O95373); experiment: Coimmunoprecipitation of Imp7 with ERK; type: cell-based; settings: HeLa cells; 10 μM, 2 hours; TPA
# T1 construct: endogenous in cells; host or cells: HeLa
# Procedure: (A) EPE peptide prevents ERK1/2-importin7 interaction. HeLa cells were serum starved (0.1%, 16 hours), pretreated with EPE peptide, scrambled peptide (10 μM, 2 hours) or DMSO, and then stimulated with TPA (250 nM, 15 min). ERK1 were precipitated with αgERK1 Ab; importin7 co-immunoprecipitated with ERK1 was detected by WB with αimportin7 Ab. […] T47D, HeLa, MDA-MB-231 and A2352 cells were serum starved (0.1%, 16 hours), pretreated with EPE peptide, scrambled peptide (10 μM, 2 hours) or DMSO control, and then stimulated with TPA (250 nM, indicated times). Cell extracts were subjected to Western blot analysis with the indicated Abs. (C) EPE peptide inhibits phosphorylation of c-Myc and Elk1 in B-Raf melanomas. A2158 and A2352 cells were treated with scrambled and EPE peptide for two hours and then stimulated with the indicated concentration of TPA for 30 min. […] (D) Quantification of some of the results in B and C. […]
# (i) Preparation of cellular extracts for Western Blotting: Cells were rinsed twice with ice-cold PBS and scraped into Radio-immunoprecipitation assay buffer (RIPA; 137 mM NaCl, 20 mM Tris (pH 7.4), 10% glycerol, 1% Triton X-100, 0.5% deoxycholate, 0.1% SDS, 2 mM EDTA, 1 mM PMSF, and 20 μM leupeptin). The extracts were centrifuged (20,000×g, 15 min, 4° C.), and the supernatants were further analyzed by Western blotting. […]
# [2] = test system: breast, prostate and cervical cancer-derived cells; experiment: Proliferation assay (Methylene Blue); type: cell-based; settings: 72 h after peptide administration, 10 μM
# Procedure: (§1) FIGS. 3A-3B illustrate that EPE peptide prevents proliferation of cancer but not normal cells. (A) Effect of the EPE peptide on the proliferation of various cell lines. Sixteen cancer and four “normal” immortalized cell lines were treated with either EPE or scrambled peptides as described above. Viable cells were assayed by Methylene Blue at 48 or 72 hours after cell seeding. The data from at least three independent experiments is presented as percent of the amount of viable cells/initial cell number, where initial cell number was considered as 100. (B) Comparison of the effects of the EPE-peptide and Raf inhibitor PLX4032 on cell viability. NHEM-Ad, LOXIMVI, A2352, Hela MDA-MB-231, and DU-145 cells were treated with EPE peptide, scrambled peptide, (10 μM), PLX4032 (1 μM), DMSO control, or no treatment at 1% FCS. The number of cells was detected as above. The graphs present the kinetic of cell growth at the indicated times. All experiments were repeated 3 times in triplicates.
# (§2) All cells, except of MCF-10A, were seeded into 12-well cell plates in 1% FBS medium. MCF-10A cells were seeded in their complete medium diluted 5 fold. DMSO, Scr peptide, EPE peptide, or U0126 (final concentration of 10 μM each) were added to the appropriated wells four hours later. Every day medium was changed to fresh one containing the same agents. The number of viable cells was measured by Methylene Blue assay at 72 h after cell seeding. Shortly, cells were fixed with 4% Formaldehyde for 2 h at 23° C., washed once with 0.1M Borate Buffer pH 8.5 and stained with of 1% Methylene Blue in 0.1M Borate Buffer for 10 min. Color was extracted by adding 0.1 M HCl for 3 h at 23° C., and examined at 595 nm. For time course experiments, viable cells were measured at 0, 24, 48, 72 and 96 h after cell seeding. For dose response experiments we treaded the cells with 0.1, 1, 3, 10, or 30 μM of peptides for 72 h, as described above.
# [3] = test system: immortalized, non-transformed cells; experiment: Proliferation assay (Methylene Blue); type: cell-based; settings: 72 h after peptide administration, 10 μM
# Procedure: as §1, §2
# [4] = test system: melanoma cells with oncogenic B-Raf (B-Raf melanoma); experiment: Proliferation assay (Methylene Blue); type: cell-based; settings: 72 h after peptide administration, 10 μM
# Procedure: as §1, §2
# [5] = test system: other melanomas, prostate and lung cancer-derived cells; experiment: Proliferation assay (Methylene Blue); type: cell-based; settings: 72 h after peptide administration, 10 μM
# Procedure: as §1, §2
# [6] = test system: PLX-4032 and U0126 resistant A2352 melanoma cells; experiment: Proliferation of inhibitor-resistant melanoma cells; type: cell-based; settings: 10 μM, 72 h
# Procedure: (A) A2352 melanoma cells resistant to either PLX4032 (B-Raf) or U0126 (MEK) inhibitors were treated with DMSO, EPE or Scr peptide (10 μM), U0126 (10 μM), PLX4032 (1 μM), Wortmannin (0.5 μM) or Taxol (25 μg/ml). Presented as percent of viable cells at 72 h/initial cell number. […] Methylene blue assay was performed to quantify viable cells. Experiments were done twice in triplicate. Data presented as fold change.
# A2352 cells were supplemented with either PLX4032 (B-Raf inhibitor, 1 μM), or U0126 (MEK inhibitor, 10 μM) for 45 days. […]
# ERK = experiment: Immunohistochemistry of ERK localization in xenograft tumors; type: in vivo, mice; settings: MDA-MB-231 and LOXIMVI xenografts, anti ERK Ab
# From the text: FIGS. 10A-10B illustrate that the EPE peptide causes cytoplasmatic localization of ERK in xenografts. FIG. 10A: Photographs illustrating that EPE and Scr peptide as well as DMSO-treated MDA-MB-231 and LOXIMVI xenografts were immunostained with αgERK Ab. FIG. 10B presents bar-graphs representing number of cells with cytoplasmatic/nuclear ERK staining calculated in 10 random microscopic fields.
# T1 sequence (O95373 whole entry): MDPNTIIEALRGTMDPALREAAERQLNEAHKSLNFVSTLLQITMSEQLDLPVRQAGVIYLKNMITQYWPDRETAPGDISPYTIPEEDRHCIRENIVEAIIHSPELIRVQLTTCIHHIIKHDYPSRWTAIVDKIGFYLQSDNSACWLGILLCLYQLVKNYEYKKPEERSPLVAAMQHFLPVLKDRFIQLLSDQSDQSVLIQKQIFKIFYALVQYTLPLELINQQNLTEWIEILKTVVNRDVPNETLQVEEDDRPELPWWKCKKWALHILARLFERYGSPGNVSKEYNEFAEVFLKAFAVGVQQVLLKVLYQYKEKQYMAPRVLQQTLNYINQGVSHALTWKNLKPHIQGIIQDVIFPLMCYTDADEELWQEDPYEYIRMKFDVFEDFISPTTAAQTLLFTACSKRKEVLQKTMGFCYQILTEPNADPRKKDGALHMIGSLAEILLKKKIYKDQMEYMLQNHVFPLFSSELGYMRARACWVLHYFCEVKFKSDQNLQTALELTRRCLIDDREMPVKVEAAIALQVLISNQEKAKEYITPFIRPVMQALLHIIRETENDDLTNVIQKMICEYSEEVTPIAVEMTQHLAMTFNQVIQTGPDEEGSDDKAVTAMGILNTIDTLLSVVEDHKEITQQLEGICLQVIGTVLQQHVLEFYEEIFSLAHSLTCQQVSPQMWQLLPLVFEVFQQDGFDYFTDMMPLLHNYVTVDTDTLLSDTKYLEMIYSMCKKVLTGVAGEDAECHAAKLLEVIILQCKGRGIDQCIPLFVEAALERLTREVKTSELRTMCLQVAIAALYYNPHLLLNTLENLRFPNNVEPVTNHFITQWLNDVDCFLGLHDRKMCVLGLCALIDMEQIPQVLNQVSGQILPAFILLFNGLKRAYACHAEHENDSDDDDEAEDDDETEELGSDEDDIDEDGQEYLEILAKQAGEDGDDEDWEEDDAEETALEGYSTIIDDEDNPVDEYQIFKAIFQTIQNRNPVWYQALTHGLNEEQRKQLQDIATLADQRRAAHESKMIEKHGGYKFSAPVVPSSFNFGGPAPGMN
sequence,measurement,setting,value
"GQLNHILGILGEPEQED (Synthetic peptide (EPE)) [EPE peptide, NTS-derived peptide with phosphomimetic EPE motif]",interaction of Imp7 with ERK,[1],prevented the interaction of Imp7 with ERK
same,proliferation (cell number),[2],"prevented cell growth, but did not reduce the number of initial cells"
same,proliferation (cell number),[3],did not respond to the peptide at all
same,proliferation (cell number),[4],profound reduction in cell number
same,proliferation (cell number),[5],small decrease in cell growth
same,cell growth,[6],able to reduce cell growth
same,ERK localization in xenograft tumor sections,ERK,localized almost exclusively in the cytoplasm
